# Active and inactive are the calls of the source.
# Experiments:
# Staphylococcus aureus = test: Inhibitors of Bacterial Quorum Sensing Structure Activity Relationship (SAR) Analysis: Dose Response Assay. [Related pubchem assays: 700, 527 ]; format: functional, organism-based
# [1] = molecular target: Protein-tyrosine kinase 2-beta (Homo sapiens, UniProt Q14289);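 also: potency of inhibitors of PYK2 kinase phosphorylation of poly-GT substrate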
# [2] = molecular target: Mitogen-activated protein kinase 10 (Homo sapiens, UniProt P53779); test: Dose response biochemical screening assay for inhibitors of c-Jun N-Terminal Kinase 3 (JNK3). [Related pubchem assays: 746 ]
# Vasopressin V1a receptor = Vasopressin V1a receptor (Homo sapiens, UniProt P37288); test: Counterscreen for Oxytocin Receptor (OXTR) agonists: Fluorescence-based cell-based high throughput dose response assay to identify agonists of the vasopressin 1 receptor (V1R). [Related pubchem assays: 2435 (Primary screen (OXTR agonists in singlicate)), 434991 (Counterscreen (V1R agonists in triplicate)), 2482 (Summary (OXTR agonists)) …; format: functional
# Oxytocin receptor = Oxytocin receptor (Homo sapiens, UniProt P30559); test: Fluorescence-based cell-based high throughput dose response assay for agonists of the Oxytocin Receptor (OXTR). [Related pubchem assays: 2435 (Primary screen (OXTR agonists in singlicate)), 434991 (Counterscreen (V1R agonists in triplicate)), 2482 (Summary (OXTR agonists)), 434963 (Confirmation screen (OXTR agonists in triplicate))]; format: functional
# [3] = molecular target: E3 ubiquitin-protein ligase Mdm2 (Homo sapiens, UniProt Q00987); test: MDM2-luc reporter signal enhancers, multi-concentration potency testing, MDM2 ubiquitin-protein ligase inhibitor program, whole-cell format, luminescence detection, 384-well microplate (AID 1394); format: functional;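 also: MDM2 E3 inhibitors raise luminescence so EC50 is for signal enhancement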
# Sequence of E3 ubiquitin-protein ligase Mdm2 (Q00987 whole entry): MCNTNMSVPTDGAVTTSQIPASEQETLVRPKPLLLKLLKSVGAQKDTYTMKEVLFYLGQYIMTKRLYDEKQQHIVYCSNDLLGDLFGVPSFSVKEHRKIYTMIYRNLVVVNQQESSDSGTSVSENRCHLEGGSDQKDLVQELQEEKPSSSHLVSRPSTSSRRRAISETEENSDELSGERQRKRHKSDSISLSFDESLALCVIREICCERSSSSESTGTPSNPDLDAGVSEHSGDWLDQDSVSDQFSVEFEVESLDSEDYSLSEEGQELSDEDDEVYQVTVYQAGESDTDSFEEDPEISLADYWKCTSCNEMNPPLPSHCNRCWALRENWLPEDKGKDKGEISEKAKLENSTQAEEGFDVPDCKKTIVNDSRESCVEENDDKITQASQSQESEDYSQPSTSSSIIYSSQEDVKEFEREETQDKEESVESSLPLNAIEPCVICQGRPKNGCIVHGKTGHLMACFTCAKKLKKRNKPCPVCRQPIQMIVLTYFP
# Galanin receptor type 2 = Galanin receptor type 2 (Homo sapiens, UniProt O43603); test: Dose Response cell-based high-throughput screening assay to identify antagonists of galanin receptor 2 (GALR2). [Related pubchem assays: 828, 866 ]; format: functional
# Sequence of Galanin receptor type 2 (O43603 whole entry): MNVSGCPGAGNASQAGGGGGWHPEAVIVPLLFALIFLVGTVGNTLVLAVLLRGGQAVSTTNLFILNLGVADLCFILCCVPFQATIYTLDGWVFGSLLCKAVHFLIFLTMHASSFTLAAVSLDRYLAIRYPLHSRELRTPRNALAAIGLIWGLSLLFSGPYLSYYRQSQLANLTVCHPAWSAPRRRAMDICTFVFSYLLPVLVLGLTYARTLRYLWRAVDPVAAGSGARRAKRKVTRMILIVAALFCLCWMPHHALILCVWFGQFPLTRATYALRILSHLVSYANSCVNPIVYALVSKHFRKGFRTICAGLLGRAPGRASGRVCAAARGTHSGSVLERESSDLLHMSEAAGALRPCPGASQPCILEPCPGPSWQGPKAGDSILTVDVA
# Protein Rev = Protein Rev (Human immunodeficiency virus type 1 group M subtype B (isolate WMJ22)(HIV-1), UniProt P05866); test: inhibitors of Rev protein–RRE RNA complex – biochemical, protein-RNA interaction, dose response (AID 842); design: species or system Human immunodeficiency virus 1
# Sequence of Protein Rev (P05866 whole entry): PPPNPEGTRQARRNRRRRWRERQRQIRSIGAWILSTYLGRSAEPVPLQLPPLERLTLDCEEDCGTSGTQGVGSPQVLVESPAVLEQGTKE
# [4] = molecular target: Peroxisome proliferator-activated receptor gamma/Nuclear receptor coactivator 2 (Homo sapiens, UniProt P37231); format: functional;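 also: agonist potency for raising coactivator recruitment to the receptor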
# Sequence of Peroxisome proliferator-activated receptor gamma/Nuclear receptor coactivator 2 (P37231 whole entry): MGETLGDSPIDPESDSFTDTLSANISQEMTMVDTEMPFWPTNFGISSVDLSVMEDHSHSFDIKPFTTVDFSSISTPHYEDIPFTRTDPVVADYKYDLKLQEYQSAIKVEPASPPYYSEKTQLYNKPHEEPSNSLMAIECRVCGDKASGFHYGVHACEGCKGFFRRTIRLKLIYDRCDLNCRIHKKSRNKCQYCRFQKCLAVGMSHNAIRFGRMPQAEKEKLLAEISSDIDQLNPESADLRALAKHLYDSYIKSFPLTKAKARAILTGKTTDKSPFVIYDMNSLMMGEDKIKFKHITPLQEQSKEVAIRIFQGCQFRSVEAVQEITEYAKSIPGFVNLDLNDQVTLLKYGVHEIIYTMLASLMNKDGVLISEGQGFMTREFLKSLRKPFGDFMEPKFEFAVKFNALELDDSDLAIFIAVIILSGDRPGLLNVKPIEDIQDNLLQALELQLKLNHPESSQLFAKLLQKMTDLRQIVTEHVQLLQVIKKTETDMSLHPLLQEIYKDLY
# Sequence of Peroxisome proliferator-activated receptor gamma/Nuclear receptor coactivator 2 (Q15596 whole entry, further chain): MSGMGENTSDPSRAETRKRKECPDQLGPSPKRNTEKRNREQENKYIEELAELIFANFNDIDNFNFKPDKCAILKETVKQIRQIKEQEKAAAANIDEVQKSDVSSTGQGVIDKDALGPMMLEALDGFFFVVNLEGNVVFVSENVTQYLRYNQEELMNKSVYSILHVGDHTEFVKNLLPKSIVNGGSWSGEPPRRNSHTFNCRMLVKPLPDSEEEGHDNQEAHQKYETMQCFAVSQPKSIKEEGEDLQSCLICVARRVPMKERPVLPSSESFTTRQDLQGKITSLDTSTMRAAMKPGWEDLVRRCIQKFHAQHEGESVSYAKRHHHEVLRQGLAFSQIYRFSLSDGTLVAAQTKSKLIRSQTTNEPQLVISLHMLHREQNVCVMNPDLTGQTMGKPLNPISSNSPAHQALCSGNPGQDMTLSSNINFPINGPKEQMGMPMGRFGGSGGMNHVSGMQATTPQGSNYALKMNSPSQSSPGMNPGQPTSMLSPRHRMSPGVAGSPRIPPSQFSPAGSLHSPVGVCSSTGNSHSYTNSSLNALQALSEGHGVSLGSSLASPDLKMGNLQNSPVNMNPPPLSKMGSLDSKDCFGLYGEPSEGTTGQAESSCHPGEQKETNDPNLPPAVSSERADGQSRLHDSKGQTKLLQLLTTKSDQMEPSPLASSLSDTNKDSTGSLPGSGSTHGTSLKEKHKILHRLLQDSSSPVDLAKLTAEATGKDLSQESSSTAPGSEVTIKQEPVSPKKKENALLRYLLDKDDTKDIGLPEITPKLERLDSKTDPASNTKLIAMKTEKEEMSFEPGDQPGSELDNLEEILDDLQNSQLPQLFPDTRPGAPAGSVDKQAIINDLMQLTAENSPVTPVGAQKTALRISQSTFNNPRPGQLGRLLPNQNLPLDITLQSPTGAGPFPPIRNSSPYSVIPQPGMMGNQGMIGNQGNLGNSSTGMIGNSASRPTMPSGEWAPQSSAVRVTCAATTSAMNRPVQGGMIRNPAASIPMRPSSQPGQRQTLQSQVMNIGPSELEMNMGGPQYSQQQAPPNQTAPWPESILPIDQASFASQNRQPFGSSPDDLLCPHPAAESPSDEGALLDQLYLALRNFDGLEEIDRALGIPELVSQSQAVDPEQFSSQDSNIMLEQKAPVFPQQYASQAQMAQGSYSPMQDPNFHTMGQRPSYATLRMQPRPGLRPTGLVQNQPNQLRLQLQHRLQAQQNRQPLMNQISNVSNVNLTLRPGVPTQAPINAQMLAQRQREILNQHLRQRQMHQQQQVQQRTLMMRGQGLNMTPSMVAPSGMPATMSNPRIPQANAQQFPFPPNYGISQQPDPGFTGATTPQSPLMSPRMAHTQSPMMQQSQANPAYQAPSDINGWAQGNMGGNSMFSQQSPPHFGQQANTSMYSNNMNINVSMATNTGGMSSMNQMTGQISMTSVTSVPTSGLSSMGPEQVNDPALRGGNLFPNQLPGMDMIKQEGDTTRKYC
# [5] = molecular target: Peroxisome proliferator-activated receptor gamma/Nuclear receptor coactivator 1 (Homo sapiens, UniProt P37231); format: functional;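 also: agonist potency as compounds enhance coactivator SRC-1 recruitment to PPARgamma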
# [6] = molecular target: Ubiquitin carboxyl-terminal hydrolase BAP1 (Homo sapiens, UniProt Q92560); test: inhibition of BAP1 ubiquitin hydrolase activity – biochemical, dose response (AID 714); format: functional
# [7] = molecular target: Peroxisome proliferator-activated receptor gamma/Nuclear receptor coactivator 3 (Homo sapiens, UniProt P37231); format: functional;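 also: agonist potency for raising coactivator recruitment to the receptor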
# Sequence of Peroxisome proliferator-activated receptor gamma/Nuclear receptor coactivator 3 (P37231 whole entry): as the sequence (P37231 whole entry) above
# Sequence of Peroxisome proliferator-activated receptor gamma/Nuclear receptor coactivator 3 (Q9Y6Q9 whole entry, further chain): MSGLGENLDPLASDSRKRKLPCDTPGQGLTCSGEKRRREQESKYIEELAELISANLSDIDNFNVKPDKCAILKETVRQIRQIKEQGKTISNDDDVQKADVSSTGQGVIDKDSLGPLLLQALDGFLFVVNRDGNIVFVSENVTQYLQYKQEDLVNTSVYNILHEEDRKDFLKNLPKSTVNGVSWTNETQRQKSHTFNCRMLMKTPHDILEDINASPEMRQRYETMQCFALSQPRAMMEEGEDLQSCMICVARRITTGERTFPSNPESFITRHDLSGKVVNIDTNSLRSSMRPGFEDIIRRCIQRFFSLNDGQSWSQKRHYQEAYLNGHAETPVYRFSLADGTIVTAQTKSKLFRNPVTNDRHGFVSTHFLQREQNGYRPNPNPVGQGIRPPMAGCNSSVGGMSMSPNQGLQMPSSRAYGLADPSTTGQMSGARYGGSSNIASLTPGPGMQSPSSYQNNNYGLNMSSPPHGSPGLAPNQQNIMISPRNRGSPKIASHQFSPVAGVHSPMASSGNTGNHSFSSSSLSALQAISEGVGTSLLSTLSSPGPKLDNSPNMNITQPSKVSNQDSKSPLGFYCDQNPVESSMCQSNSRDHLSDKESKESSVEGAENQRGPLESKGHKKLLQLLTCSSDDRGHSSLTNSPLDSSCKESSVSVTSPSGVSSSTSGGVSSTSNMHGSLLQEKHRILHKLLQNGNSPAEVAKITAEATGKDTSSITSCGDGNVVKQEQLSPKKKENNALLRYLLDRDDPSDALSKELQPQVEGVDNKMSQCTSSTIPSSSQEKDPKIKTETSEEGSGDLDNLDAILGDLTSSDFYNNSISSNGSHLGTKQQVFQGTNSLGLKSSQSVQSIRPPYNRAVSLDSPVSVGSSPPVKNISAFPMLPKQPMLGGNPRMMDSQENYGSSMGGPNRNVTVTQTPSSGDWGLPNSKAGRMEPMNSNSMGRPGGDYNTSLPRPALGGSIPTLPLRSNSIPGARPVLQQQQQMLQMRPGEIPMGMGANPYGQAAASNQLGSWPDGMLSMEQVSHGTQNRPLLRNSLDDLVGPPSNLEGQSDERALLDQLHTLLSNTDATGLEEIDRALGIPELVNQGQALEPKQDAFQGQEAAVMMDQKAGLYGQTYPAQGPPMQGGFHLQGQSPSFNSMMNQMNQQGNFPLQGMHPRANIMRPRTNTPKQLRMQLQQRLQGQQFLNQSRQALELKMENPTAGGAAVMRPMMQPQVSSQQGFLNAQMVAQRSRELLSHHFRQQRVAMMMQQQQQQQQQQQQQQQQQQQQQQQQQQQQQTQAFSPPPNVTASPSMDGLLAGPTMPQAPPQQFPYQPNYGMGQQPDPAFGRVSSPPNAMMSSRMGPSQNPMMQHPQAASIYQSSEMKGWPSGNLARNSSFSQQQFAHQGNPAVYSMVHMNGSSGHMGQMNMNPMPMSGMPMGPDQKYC
# [8] = Luminescence Cell-Based Dose Confirmation HTS to Identify Activators of 5'UTR Stem-Loop Driven Alpha-Synuclein mRNA Translation in H4 Neuroglioblastoma Cells. [Related pubchem assays: 1829 (Project Summary), 1814 (Primary HTS)]; format: functional
# [9] = Luminescence Cell-Based Dose Response HTS to Identify Activators of Luciferase Translation or Activity in H4 […] Cells. [Related pubchem assays: 1829 (Project Summary), 1814 (Primary HTS)]; format: functional
# H4 = test: Luminescence Cell-Based Dose Response HTS to Identify Activators of 5'UTR Stem-Loop Driven Prion Protein mRNA Translation in H4 Neuroglioblastoma Cells. [Related pubchem assays: 1829 (Project Summary), 1814 (Primary HTS)]; format: functional; conditions: Homo sapiens
# [10] = molecular target: T1, Alkaline phosphatase, tissue-nonspecific isozyme (Homo sapiens, UniProt P05186)
# T1 sequence (P05186 whole entry): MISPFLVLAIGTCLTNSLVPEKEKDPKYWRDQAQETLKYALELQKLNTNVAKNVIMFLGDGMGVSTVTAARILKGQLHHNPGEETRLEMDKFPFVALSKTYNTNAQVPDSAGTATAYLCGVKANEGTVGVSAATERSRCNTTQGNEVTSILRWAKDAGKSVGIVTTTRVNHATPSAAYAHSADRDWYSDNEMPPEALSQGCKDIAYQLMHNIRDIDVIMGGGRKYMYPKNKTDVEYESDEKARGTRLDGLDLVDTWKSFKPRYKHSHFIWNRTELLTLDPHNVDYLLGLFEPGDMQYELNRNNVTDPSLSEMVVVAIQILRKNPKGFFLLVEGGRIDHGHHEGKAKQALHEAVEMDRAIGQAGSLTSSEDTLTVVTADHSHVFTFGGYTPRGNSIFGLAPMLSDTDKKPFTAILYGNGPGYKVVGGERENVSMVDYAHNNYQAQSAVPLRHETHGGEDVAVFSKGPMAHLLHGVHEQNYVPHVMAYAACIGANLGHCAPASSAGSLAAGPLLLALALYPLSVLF
# [11] = Luminescence-based cell-based high throughput dose response assay to identify activators of the DAF-12 from the parasite S. stercoralis (ssDAF-12).; format: functional
# [12] = Luminescence Cell-Based Dose-Confimation HTS to Identify Inhibitors of 5'UTR Stem-Loop Driven Alpha-Synuclein mRNA Translation in H4 Neuroglioblastoma Cells. [Related pubchem assays: 1827 (Project Summary), 1813 (Primary HTS)]; format: functional
structure (smiles),measurement,setting,value
CC1CCCN(C(C(=O)Nc2ccc3c(c2)OCO3)c2ccccc2)C1 (stereo not drawn),IC50,Staphylococcus aureus,0.162 µM (active)
COc1ccc([N+](=O)[O-])cc1COc1cc(C)cc2oc(=O)cc(-c3ccccc3)c12,IC50,[1],> 69.5 µM (not active)
Cc1oc2ccc(OCC(N)=O)cc2c1C(=O)OC(C)C,IC50,[2],44.9 µM (not active)
Oc1ccc(Cl)cc1CNCc1ccc(F)cc1,EC50,Vasopressin V1a receptor,11 µM (not active)
same,EC50,Oxytocin receptor,15.5 µM (not active)
Cc1ccc(-n2c(C)cc(C=C3C(=O)CC(C)(C)CC3=O)c2C)cc1,EC50,[3],17.4 µM (not active)
CCOC(=O)COc1ccc(S(=O)(=O)NCc2ccncc2)cc1,IC50,Galanin receptor type 2,> 42 µM (not active)
CC(NCc1ccc(N(C)C)cc1)C1CC2CCC1C2 (stereo not drawn),IC50,Protein Rev,> 79.4 µM (not active)
CCc1nc(SCC(=O)Nc2ccc3c(c2)OCCO3)c2oc3ccccc3c2n1,EC50,[4],23.3 µM (not active)
same,EC50,[5],> 79.4 µM (not active)
same,IC50,[6],13.9 µM (active)
same,EC50,[7],> 79.4 µM (not active)
Cc1cc(C)c(C#N)c(SCc2nc3ccccc3[nH]2)n1,EC50,[8],0.262 µM (active)
same,EC50,[9],14.9 µM (active)
same,EC50,H4,44.6 µM (active)
same,EC50,[10],> 100 µM (not active)
same,IC50,[11],> 67.5 µM (inactive)
Nc1nc(CSc2nnnn2-c2ccccc2)nc(Nc2ccccc2)n1,EC50,[12],15.5 µM (active)

# Reference: ChEMBL document CHEMBL1201862, “PubChem BioAssay data set” (2004)
